Measured values as given in US5786324A, “Synthetic peptides with bactericidal activity and endotoxin neutralizing activity for gram negative bacteria and methods for their use” (priority 1994, dated 1998).
Read-outs that look alike come from different tables or passages of the source. Positions of bridges follow the written chain, without caps; N, C: chain ends. Residues, ends and D or L forms follow the SMILES beside them. No end group written: not given here.

Assays:
[1] = test system: Pseudomonas aeruginosa type 1; assay type: cell-based; details: pH 5.6; for Effective Dose Bactericidal pH 5.6 P. aeruginosa Molar Concentration: Table 5
Description: Bactericidal activity can be evaluated against a variety of bacteria such as Pseudomonas spp including aeruginosa and P. cepacia, E. coli B, and Staphylococcus aureus. The preferred organism is P. aeruginosa. Bactericidal activity is determined by identifying the effective dose for killing as the molar concentration of the peptide which results in at least a 60% killing of the bacteria, as determined by standard methods. Preferably, the peptide has an effective dose at a concentration of about 1×10^-4 M to about 1×10^-10 M, and more preferably 1×10^-7 M to 1×10^-9M . […] The effective dose for bactericidal activity of B/PI is seen at about […] . Bactericidal activity can also be determined by calculating a lethal dose 50 (LD50) using standard methods. The LD50 is that amount of peptide or protein that kills 50% of the bacteria when measured using standard dose response methods. A bactericidal peptide preferably has an LD50 of about 10^-4 M to about 10^-9 M , more preferably about 10^-7 to 10^-9 M .
The synthetically produced peptides were assayed for bactericidal activity against Pseudomonas aeruginosa, type 1, P. cepacia ATCC 25608, E. coli B, and Staphylococcus aureus 502A by standard methods.
Pseudomonas aeruginosa type 1 is a clinical isolate maintained in the laboratory since 1972. The isolate remains a smooth strain and was serotyped by the scheme of Homma. Homma, Jpn. J. Exp. Med., 46:329 (1976). A rough strain E. coli B and S. aureus 502A were obtained from Paul Quie, University of Minnesota. The characteristics of the S. aureus strain have been described in Shinefield et al., Amer. J. Dis. Chil., 105:646 (1963). Pseudomonas cepacia ATCC 25608 was purchased from the American Type Culture Collection in 1980. S. aureus and E. coli were maintained on nutrient agar plates and the Pseudomonas strains were maintained on blood agar plates.
Pyrogen-free solutions were used throughout this assay and all methods which follow. Log phase bacteria were prepared from a culture in brain heart infusion broth as previously described except that bacteria were washed and resuspended in saline with adjustment to an optical density at 650 nm which would yield 3×10^8 CFU/ml. Bacteria were then diluted 1:10 in 0.08M citrate phosphate buffer, pH 5.6 or pH 7.0, for use in the assay. S. aureus rapidly lost viability in the pH 5.6 buffer and was studied only at pH 7.0. Bactericidal activity was determined by dose response and where an LD50 is indicated, it was determined by linear regression.

[2] = test system: E. coli 055: B5 LPS; assay: Limulus amoebocyte lysate assay, neutralization of endotoxin; assay type: biochemical; details: Table 8; LAL
Source text: The peptide selected can also have endotoxin neutralizing activity. […] Endotoxin neutralizing activity can also be measured by calculating an inhibitory dose 50 […] using standard does response methods. An inhibitory dose 50 is that amount of peptide that can inhibit 50% of the activity of endotoxin. Endotoxin activity can also be measured by determining the amount of release of tumor necrosis factor alpha (TNFα) from a macrophage cell line or by evaluating the symptoms of shock in animals. Peptides preferably neutralized endotoxin at a molar concentration of about 1×10^-4 M to about 10^-8 M , more preferably about 10^-5 M to about 10^-6 M .
The ability of synthetic peptides to neutralize endotoxin was detected with the E-TOXATE kit manufactured by Sigma Chemicals, St. Louis, Mo. […] Peptide was incubated with LPS at room temperature for 10 minutes in 100 μl of a 1:2 dilution of pyrogen-free saline, pH 6.4. The reaction was started by addition of 100 μl of amoebocyte lysate and the final volume was 200 μl.
^a The dose of peptide required to inhibit clotting of LAL by 100%.
Each tube contained 0.04 endotoxin units of E. coli LPS.

Compound	Effective Dose Bactericidal pH 5.6 P. aeruginosa Molar Concentration [1]	Effective Dose Endotoxin Neutralization (Molar Concentration) [2]	also measured
CC[C@H](C)[C@H](NC(=O)[C@H](CCCCN)NC(=O)[C@@H](N)CSSC[C@H](N)C(=O)N[C@@H](CCCCN)C(=O)N[C@H](C(=O)N[C@@H](CO)C(=O)NCC(=O)N[C@@H](CCCCN)C(=O)N[C@@H](Cc1c[nH]c2ccccc12)C(=O)N[C@@H](CCCCN)C(=O)N[C@@H](C)C(=O)N[C@@H](CCC(N)=O)C(=O)N[C@@H](CCCCN)C(=O)N[C@@H](CCCNC(=N)N)C(=O)N[C@@H](Cc1ccccc1)C(=O)N[C@@H](CC(C)C)C(=O)N[C@@H](CCCCN)C(=O)O)[C@@H](C)CC)C(=O)N[C@@H](CO)C(=O)NCC(=O)N[C@@H](CCCCN)C(=O)N[C@@H](Cc1c[nH]c2ccccc12)C(=O)N[C@@H](CCCCN)C(=O)N[C@@H](C)C(=O)N[C@@H](CCC(N)=O)C(=O)N[C@@H](CCCCN)C(=O)N[C@@H](CCCNC(=N)N)C(=O)N[C@@H](Cc1ccccc1)C(=O)N[C@@H](CC(C)C)C(=O)N[C@@H](CCCCN)C(=O)O [dimer 8b]			% Killing of 5 × 10^6 Bacteria ([1]; type 1, 1.5e-6 M): 52%
CC[C@H](C)[C@@H]1NC(=O)[C@H](CCCCN)NC(=O)[C@@H](N)CSSC[C@@H](C(=O)O)NC(=O)[C@H](Cc2ccccc2)NC(=O)[C@H](CC(N)=O)NC(=O)CNC(=O)[C@H](CO)NC(=O)[C@H](CCSC)NC(=O)[C@H](CCCCN)NC(=O)[C@H](CC(C)C)NC(=O)[C@H](Cc2ccccc2)NC(=O)[C@H](CCCNC(=N)N)NC(=O)[C@H](CCCCN)NC(=O)[C@H](CCC(N)=O)NC(=O)[C@H](C)NC(=O)[C@H](CCCCN)NC(=O)[C@H](Cc2c[nH]c3ccccc23)NC(=O)[C@H](CCCCN)NC(=O)CNC(=O)[C@H](CO)NC1=O [cyclic 36] (H-CKISGKWKAQKRFLKMSGNFC-OH; disulfide 1-21)			% Killing of 5 × 10^6 Bacteria ([1]; type 1, 1.5e-7 M): 76%
kwkfkqralk [Peptide 26]	1.5 × 10^-5 M	300 µM	% Killing of 5 × 10^6 Bacteria ([1]; P. aeruginosa, 1.5 × 10^-5 M): 61%
kkkffrlakq [Peptide 27]	3.0 × 10^-5 M	-- (not active at concentrations of 4.5 × 10^-4 M or less)	% Killing of 5 × 10^6 Bacteria ([1]; P. aeruginosa, 3.0 × 10^-5 M): 49%; bacterial killing activity compared with parent peptide (in words) ([1]; P. aeruginosa): little or no effect
kisgkwkaqk [Peptide 32]	1.25 × 10^-4 M	450 µM	% Killing of 5 × 10^6 Bacteria ([1]; P. aeruginosa, 1.25 × 10^-4 M): 33%
nanikisgkwkaqkrflkmsgnfdlsi [Peptide 22]	6.0 × 10^-8 M	30 µM	% Killing of 5 × 10^6 Bacteria ([1]; P. aeruginosa, 6.0 × 10^-8 M): 74%
ckisgkwkaqkrflkmsgnfc [Peptide 36]	1.2 × 10^-4 M	750 µM	% Killing of 5 × 10^6 Bacteria ([1]; P. aeruginosa, 1.2 × 10^-4 M): 39%
ktkckflkkc [Peptide 25, reference compound]	6.0 × 10^-6 M	-- (not active at concentrations of 4.5 × 10^-4 M or less)	% Killing of 5 × 10^6 Bacteria ([1]; P. aeruginosa, 6.0 × 10^-6 M): 56%
kkkwfrlakq [Peptide 21]	1.5 × 10^-5 M	-- (not active at concentrations of 4.5 × 10^-4 M or less)	% Killing of 5 × 10^6 Bacteria ([1]; P. aeruginosa, 1.5 × 10^-5 M): 71%; bacterial killing activity compared with parent peptide (in words) ([1]; P. aeruginosa): retained biological activity
ckwkaqkrflkc (CKWKAQKRFLKC; not fully specified (bridges); also: cyclic, kind and places of ring not given here) [Peptide 20a]	3.0 × 10^-6 M	-- (not active at concentrations of 4.5 × 10^-4 M or less)	% Killing of 5 × 10^6 Bacteria ([1]; P. aeruginosa, 3.0 × 10^-6 M): 76%
kwkaqkrflkc [Peptide 20b]	3.0 × 10^-6 M	-- (not active at concentrations of 4.5 × 10^-4 M or less)	% Killing of 5 × 10^6 Bacteria ([1]; P. aeruginosa, 3.0 × 10^-6 M): 75%
CC(C)C[C@@H]1NC(=O)[C@H](Cc2ccccc2)NC(=O)[C@H](CCCNC(=N)N)NC(=O)[C@H](CCCCN)NC(=O)[C@H](CCC(N)=O)NC(=O)[C@H](C)NC(=O)[C@H](CCCCN)NC(=O)[C@H](Cc2c[nH]c3ccccc23)NC(=O)[C@H](CCCCN)NC(=O)[C@@H](N)CSSC[C@@H](C(=O)O)NC(=O)[C@H](CCCCN)NC1=O [cyclic 20a]			% Killing of 5 × 10^6 Bacteria ([1]; type 1, 3.0e-5 M): 89%
iktkkflkkt [Peptide 24, reference compound]	3.0 × 10^-5 M	-- (not active at concentrations of 4.5 × 10^-4 M or less)	% Killing of 5 × 10^6 Bacteria ([1]; P. aeruginosa, 3.0 × 10^-5 M): 72%
kkkafrlakq [Peptide 28]	3.0 × 10^-5 M	-- (not active at concentrations of 4.5 × 10^-4 M or less)	% Killing of 5 × 10^6 Bacteria ([1]; P. aeruginosa, 3.0 × 10^-5 M): 68%; bacterial killing activity compared with parent peptide (in words) ([1]; P. aeruginosa): little or no effect
CC[C@H](C)[C@H](NC(=O)[C@H](CCCCN)NC(=O)[C@@H](N)CS)C(=O)N[C@@H](CO)C(=O)NCC(=O)N[C@@H](CCCCN)C(=O)N[C@@H](Cc1c[nH]c2ccccc12)C(=O)N[C@@H](CCCCN)C(=O)N[C@@H](C)C(=O)N[C@@H](CCC(N)=O)C(=O)N[C@@H](CCCCN)C(=O)N[C@@H](CCCNC(=N)N)C(=O)N[C@@H](Cc1ccccc1)C(=O)N[C@@H](CC(C)C)C(=O)N[C@@H](CCCCN)C(=O)O [Peptide 8b, ckisgkwkaqkrflk]			% Killing of 5 × 10^6 Bacteria ([1]; type 1, 1.5e-6 M): 88%
CC(C)C[C@@H]1NC(=O)[C@H](Cc2ccccc2)NC(=O)[C@H](CCCCN)NC(=O)[C@@H](NC(=O)[C@H](CCCCN)NC(=O)[C@@H](NC(=O)[C@@H](N)CCCCN)[C@@H](C)O)CSSC[C@@H](C(=O)O)NC(=O)[C@H](CCCCN)NC(=O)[C@H](CCCCN)NC1=O [cyclic 25, reference compound] (H-KTKCKFLKKC-OH; disulfide 4-10)			% Killing of 5 × 10^6 Bacteria ([1]; type 1, 1.5e-5 M): 73%
CC[C@H](C)[C@H](NC(=O)[C@@H](N)CCCCN)C(=O)N[C@@H](CO)C(=O)NCC(=O)N[C@@H](CCCCN)C(=O)N[C@@H](Cc1c[nH]c2ccccc12)C(=O)N[C@@H](CCCCN)C(=O)N[C@@H](C)C(=O)N[C@@H](CCC(N)=O)C(=O)N[C@@H](CCCCN)C(=O)N[C@@H](CCCNC(=N)N)C(=O)N[C@@H](Cc1ccccc1)C(=O)N[C@@H](CC(C)C)C(=O)N[C@@H](CCCCN)C(=O)O [Peptide 8a, kisgkwkaqkrflk]			% Killing of 5 × 10^6 Bacteria ([1]; type 1, 6.0e-6 M): 79%
CSCC[C@H](NC(=O)[C@H](CCCCN)NC(=O)[C@H](CC(C)C)NC(=O)[C@H](Cc1ccccc1)NC(=O)[C@H](CCCNC(=N)N)NC(=O)[C@H](CCCCN)NC(=O)[C@H](CCC(N)=O)NC(=O)[C@H](C)NC(=O)[C@H](CCCCN)NC(=O)[C@H](Cc1c[nH]c2ccccc12)NC(=O)[C@@H](N)CCCCN)C(=O)N[C@@H](CO)C(=O)NCC(=O)O [Peptide 9a, kwkaqkrflkmsg]			% Killing of 5 × 10^6 Bacteria ([1]; type 1, 6.0e-6 M): 67%
CSCC[C@H](NC(=O)[C@H](CCCCN)NC(=O)[C@H](CC(C)C)NC(=O)[C@H](Cc1ccccc1)NC(=O)[C@H](CCCNC(=N)N)NC(=O)[C@H](CCCCN)NC(=O)[C@H](CCC(N)=O)NC(=O)[C@H](C)NC(=O)[C@H](CCCCN)NC(=O)[C@H](Cc1c[nH]c2ccccc12)NC(=O)[C@H](CCCCN)NC(=O)[C@@H](N)CS)C(=O)N[C@@H](CO)C(=O)NCC(=O)O [Peptide 9b, ckwkaqkrflkmsg]			% Killing of 5 × 10^6 Bacteria ([1]; type 1, 1.5e-6 M): 96%
